In patent publication US20040044006A1, “Methods of use of quinolone compounds against pneumococcal and haemophilus bacteria” (priority 1999, published 2004):
In brackets after ≈: the same amount, converted by molar mass. Read-outs that look alike come from different tables or passages of the source.

Legend:
Type in all cases: cell-based, Streptococcus pneumoniae
[1] = test system: quinolone resistant pneumococci; assay: Determination of efflux mechanism: MICs in the presence and absence of reserpine
Procedure: MICs were determined in the presence and absence of 10 μg/ml of reserpine (Sigma Chemicals, St. Louis, Mo.) as known in the art.
MICs were determined in the presence and absence of […] of reserpine (Sigma Chemicals, St. Louis, Mo., USA) as described previously (Brenwald, et al., Antimicrob. Agents Chemother. 42:2039-2035, 1998 and Davies, et al., Antimicrob. Agents Chemother. 43:1177-1182S, 1999).

[2] = test system: penicillin susceptible and resistant pneumococcal strains (2 quinolone resistant); assay: Time-kill testing of 12 pneumococcal strains; conditions: 12 penicillin susceptible and resistant pneumococcal strains; 24 h; bactericidal = ≧3 log10 cfu/ml (99.9%) reduction
How it was run: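 Pneumococci at 5×10^5–5×10^6 cfu/ml were exposed to doubling antibiotic concentrations in cation-adjusted Mueller-Hinton broth + 5% lysed horse blood at 35 °C with shaking. Viable counts (detection limit 300 cfu/ml) were taken at 0, 3, 6, 12 and 24 h.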

[3] = test system: pneumococci with ciprofloxacin MICs ≧8 μg/ml; assay: Quinolone agar dilution MICs of 28 ciprofloxacin resistant pneumococcal strains, correlated with QRDR mutations
Procedure: Additionally these strains were tested for mutations in parC, gyrA, parE, and gyrB (Pan, et al. Antimicrob. Agents Chemother. 40:2321-2326, 1996) and for efflux mechanism (Brenwald, et ail., Antimicrob. Agents Chemother. 42:2032-2035, 1998).
Gemifloxacin susceptibility powder was obtained from SmithKline Beecham Laboratories, Harlow, UK. Agar dilution methodology was performed on 28 strains as described previously (M. R. Jacobs, Clin. Infect. Dis. 15: 119-127, […] and M. R. Jacobs, Rev. Med. Microbiol. 6:77-93, 1995), using Mueller-Hinton altar (BBL Microbiology Systems, Cockeysville, Md.) supplemented with 5% sheep blood. Standard quality control strains, including Streptococcus pneumoniae ATCC 49619, were included in each run of agar dilution MICs.

[4] = agar dilution, 28 strains with ciprofloxacin MICs ≧8.0 μg/ml

With `Cc1c(F)c(N2CCNC(C)C2)cc2c1c(=O)c(C(=O)O)cn2C1CC1` (stereo not shown) [Grepafloxacin, grepafloxacin] the “lower MICs in the presence of reserpine, fold range over affected strains” value ([1]; 28 quinolone resistant strains, 10 μg/ml reserpine) was 2 ×, the “number of strains with lower MICs in the presence of reserpine” value ([1]; of 28 quinolone resistant strains, 10 μg/ml reserpine) was 3 strains and the “Number of dilutions decrease after incubation with reserpine” value (“Number of dilutions decrease” below) ([1]; strain 5) was 2X. For the same molecule, the “lower MIC in the presence of reserpine (efflux mechanism)” value (“lower MIC in the presence of reserpine” below) ([1]; strain 5, 10 μg/ml reserpine) was 2X, the “Number of dilutions decrease” value ([1]; strain 12) was 2X and the “lower MIC in the presence of reserpine” value ([1]; strain 12, 10 μg/ml reserpine) was 2X. For the same molecule, the “Number of dilutions decrease” value ([1]; strain 28) was 2X, the “lower MIC in the presence of reserpine” value ([1]; strain 28, 10 μg/ml reserpine) was 2X and the “concentration at which bactericidal after 24 h” value [2] was 4 ×MIC. It also gave an MIC50 ([3]; Streptococcus pneumoniae) of 4 µg/mL (≈ 11.1 µM), an MIC90 ([3]; Streptococcus pneumoniae) of 8 µg/mL (≈ 22.3 µM) and an MIC ([3]; Streptococcus pneumoniae, read-out: MICs in strains with three or four QRDR mutations, 20 strains, bound holds in all 20 (ciprofloxacin, levofloxacin, sparfloxacin), 19 (grepafloxacin), 10 (trovafloxacin), 18 (gemifloxacin)) of over 1 µg/mL. It also gave an MIC ([3]; Streptococcus pneumoniae, read-out: MICs in strains with three or four QRDR mutations, 21 strains, bound holds in all 21 (ciprofloxacin, levofloxacin, sparfloxacin), 20 (grepafloxacin), 11 (trovafloxacin), 19 (gemifloxacin)) of at least 1 µg/mL, an MIC ([3]; Streptococcus pneumoniae, strain 1, ParC S79-F, ParE I460-V, GyrA S81-F, GyrB None) of 4 µg/mL (≈ 11.1 µM) and an MIC ([3]; Streptococcus pneumoniae, strain 1, ParC S79-F, ParE I460-V, GyrA S83-F, GyrB None) of 4 µg/mL (≈ 11.1 µM). The MIC ([3]; Streptococcus pneumoniae, strain 2, ParC S79-Y, ParE I460-V, GyrA None, GyrB None) was 0.5 µg/mL (≈ 1.39 µM), the MIC ([3]; Streptococcus pneumoniae, strain 3, ParC D83-N, ParE I460-V, GyrA S81-F, GyrB None) was 0.5 µg/mL (≈ 1.39 µM) and the MIC ([3]; Streptococcus pneumoniae, strain 3, ParC D83-N, ParE I460-V, GyrA S83-F, GyrB None) was 0.5 µg/mL (≈ 1.39 µM). For the same molecule, the MIC ([3]; Streptococcus pneumoniae, strain 4, ParC S79-F, ParE I460-V, GyrA S81-F, GyrB None) was 1 µg/mL (≈ 2.78 µM), the MIC ([3]; Streptococcus pneumoniae, strain 4, ParC S79-F, ParE I460-V, GyrA S83-F, GyrB None) was 1 µg/mL (≈ 2.78 µM) and the MIC ([3]; Streptococcus pneumoniae, strain 5, ParC R95-C, ParE D435-N, GyrA S81-F, GyrB None) was 1 µg/mL (≈ 2.78 µM). For the same molecule, the MIC ([3]; Streptococcus pneumoniae, strain 5, ParC R95-C, ParE D435-N, GyrA S83-F, GyrB None) was 1 µg/mL (≈ 2.78 µM), the MIC ([3]; Streptococcus pneumoniae, strain 6, ParC S79-Y, ParE I460-V, GyrA E85-K, GyrB None) was 2 µg/mL (≈ 5.56 µM) and the MIC ([3]; Streptococcus pneumoniae, strain 6, ParC S79-Y, ParE I460-V, GyrA E87-K, GyrB None) was 2 µg/mL (≈ 5.56 µM). It also gave an MIC ([3]; Streptococcus pneumoniae, strain 7, ParC None, ParE I460-V, GyrA None, GyrB None) of 1 µg/mL (≈ 2.78 µM), an MIC ([3]; Streptococcus pneumoniae, strain 8, ParC S79-Y, ParE None, GyrA None, GyrB None) of 1 µg/mL (≈ 2.78 µM) and an MIC ([3]; Streptococcus pneumoniae, strain 9, ParC S79-Y, ParE None, GyrA None, GyrB None) of 1 µg/mL (≈ 2.78 µM). For the same molecule, the MIC ([3]; Streptococcus pneumoniae, strain 10, ParC S79-F, ParE I460-V, GyrA S81-C, GyrB None) was 2 µg/mL (≈ 5.56 µM), the MIC ([3]; Streptococcus pneumoniae, strain 10, ParC S79-F, ParE I460-V, GyrA S83-C, GyrB None) was 2 µg/mL (≈ 5.56 µM) and the MIC ([3]; Streptococcus pneumoniae, strain 11, ParC S79-F, ParE I460-V, GyrA S81-F, GyrB None) was 4 µg/mL (≈ 11.1 µM). For the same molecule, the MIC ([3]; Streptococcus pneumoniae, strain 11, ParC S79-F, ParE I460-V, GyrA S83-F, GyrB None) was 4 µg/mL (≈ 11.1 µM), the MIC ([3]; Streptococcus pneumoniae, strain 12, ParC S79-F, ParE I460-V, GyrA None, GyrB D435-N) was 4 µg/mL (≈ 11.1 µM) and the MIC ([3]; Streptococcus pneumoniae, strain 13, ParC S79-F, ParE I460-V, GyrA None, GyrB E474-K) was 2 µg/mL (≈ 5.56 µM). For the same molecule, the MIC ([3]; Streptococcus pneumoniae, strain 14, ParC S79-F, ParE I460-V, GyrA S81-F, GyrB None) was 4 µg/mL (≈ 11.1 µM), the MIC ([3]; Streptococcus pneumoniae, strain 14, ParC S79-F, ParE I460-V, GyrA S83-F, GyrB None) was 4 µg/mL (≈ 11.1 µM) and the MIC ([3]; Streptococcus pneumoniae, strain 15, ParC 79-F, ParE I460-V, GyrA S83-F, GyrB None) was 4 µg/mL (≈ 11.1 µM). For the same molecule, the MIC ([3]; Streptococcus pneumoniae, strain 15, ParC S79-F, ParE I460-V, GyrA S81-F, GyrB None) was 4 µg/mL (≈ 11.1 µM), the MIC ([3]; Streptococcus pneumoniae, strain 16, ParC S79-F, ParE I460-V, GyrA S81-F, GyrB None) was 4 µg/mL (≈ 11.1 µM) and the MIC ([3]; Streptococcus pneumoniae, strain 16, ParC S79-F, ParE I460-V, GyrA S83-F, GyrB None) was 4 µg/mL (≈ 11.1 µM). The MIC ([3]; Streptococcus pneumoniae, strain 17, ParC D83-N, ParE None, GyrA S81-F, GyrB None) was 4 µg/mL (≈ 11.1 µM), the MIC ([3]; Streptococcus pneumoniae, strain 17, ParC D83-N, ParE None, GyrA S83-F, GyrB None) was 4 µg/mL (≈ 11.1 µM) and the MIC ([3]; Streptococcus pneumoniae, strain 18, ParC S79-F, ParE I460-V, GyrA S81-F, GyrB None) was 4 µg/mL (≈ 11.1 µM). It also gave an MIC ([3]; Streptococcus pneumoniae, strain 18, ParC S79-F, ParE I460-V, GyrA S83-F, GyrB None) of 4 µg/mL (≈ 11.1 µM), an MIC ([3]; Streptococcus pneumoniae, strain 19, ParC S79-F, ParE I460-V, GyrA S81-F, GyrB None) of 4 µg/mL (≈ 11.1 µM) and an MIC ([3]; Streptococcus pneumoniae, strain 19, ParC S79-F, ParE I460-V, GyrA S83-F, GyrB None) of 4 µg/mL (≈ 11.1 µM). The MIC ([3]; Streptococcus pneumoniae, strain 20, ParC S79-F, ParE I460-V, GyrA E85-K, GyrB None) was 4 µg/mL (≈ 11.1 µM), the MIC ([3]; Streptococcus pneumoniae, strain 20, ParC S79-F, ParE I460-V, GyrA E87-K, GyrB None) was 4 µg/mL (≈ 11.1 µM) and the MIC ([3]; Streptococcus pneumoniae, strain 21, ParC S79-F, ParE I460-V, GyrA S81-F, GyrB None) was 4 µg/mL (≈ 11.1 µM). The MIC ([3]; Streptococcus pneumoniae, strain 21, ParC S79-F, ParE I460-V, GyrA S83-F, GyrB None) was 4 µg/mL (≈ 11.1 µM), the MIC ([3]; Streptococcus pneumoniae, strain 22, ParC S79-F, ParE I460-V, GyrA S81-Y, GyrB None) was 4 µg/mL (≈ 11.1 µM) and the MIC ([3]; Streptococcus pneumoniae, strain 22, ParC S79-F, ParE I460-V, GyrA S83-Y, GyrB None) was 4 µg/mL (≈ 11.1 µM). The MIC50 [3, 4] was 4.0 µg/mL (≈ 11.1 µM), the MIC90 [3, 4] was 8.0 µg/mL (≈ 22.3 µM) and the MIC Range [3, 4] was 0.5 to 16.0 µg/mL. It also gave an MIC Range ([3]; agar dilution, 28 strains with ciprofloxacin MICs ≧8.0 μg/ml, listed as grepafloxacin) of 0.5 to 16 µg/mL.
